Laboratory results: patent US20230121031A1, “MASKED FLUOROGENIC COMPOUNDS AND METHODS OF USING THE SAME” (Rutgers, The State University of New Jersey, priority 2021, published 2023)

Assays:
RNABabySpinach (51-nt) = assay: Experimental binding assay (fluorescence) with RNABabySpinach; settings: Fluorophore (2 μM), RNA (1 μM); for fluorescence intensity with RNABabySpinach: HEPES (pH 8, 20 mM), KCl (100 mM), MgCl2 (10 mM)
Text: FIGS. 4A-4E depict the effect of chemical modifications of HBI on its binding interactions with RNA. FIG. 4A is a crystal structure of DFHBI-RNASpinach (PDB: 4TS2) focusing on the key H-bonding interactions of DFHBI within the G-G-A binding pocket of RNASpinach. […] FIG. 4C is a Pymol view of docked Oct-HBI-RNASpinach, showing that these interactions are disrupted. FIG. 4D is a Pymol view of a docked methyl carbonate-modified HBI-RNASpinach, showing that these interactions are disrupted. FIG. 4E depicts normalized RFUs of HBI and HBI+RNABabySpinach (gray bars) vs. Oct-HBI and Oct-HBI+RNABabySpinach (blue bars). Fluorophore (2 μM), RNA (1 μM), HEPES (pH 8, 20 mM), KCl (100 mM), and MgCl2 (10 mM).
Ligand docking is a useful tool to screen virtual library of molecules to predict binding affinity and conformation of a ligand within a binding pocket. To gain a theoretical insight into the effect of chemical modifications of HBI on its binding interactions with RNA, a robust docking method named Auto-Dock Vina was used (FIGS. 4A-4D). First, the validity of this method was tested by comparing the proposed HBI-RNASpinach docking (FIG. 4B) with the X-ray crystal structure of the native ligand-RNASpinach [FIG. 4A; the co-crystallized ligand in the reported study is 3,5-difluoro-HBI (DFHBI)]. To attain the initial HBI structure for docking, optimizations were performed in gas phase via density functional theory calculations using B3LYP, 6-31G basis set in Gaussian16 software. […] Next, the phenolic oxygen of HBI was replaced with alkyl carbonate groups.

[1] = tested on: E. coli competent cells (e.g., BL21-DE3); assay: Fluorescence imaging of H2O2 in E. coli expressing aptamer; assay type: cell-based; settings: for fluorescence in E. coli expressing aptamer: imaging buffer with H2O2 (100 μM)
Text: FIGS. 8A-8D depict detection of H2O2 in E. coli utilizing PBAB-MFHBI. FIG. 8A provides a schematic showing the detection of H2O2 in E. coli by fluorescence of MFHBI upon cleavage from PBAB-MFHBI. FIGS. 8B-8D provide fluorescence images of E. coli expressing aptamer plasmid which have been administered MFHBI (FIG. 8B), PBA-MFHBI (FIG. 8C), and PBA-MFHBI in the presence of H2O2 (FIG. 8D). Dual channel: MFHBI+RNA (470/550 nm) and FM 4-64FX (510/640 nm). Scale bar: 10 μm.
For histochemical detection of oxidative stress in living cells, the focus is first on E. coli competent cells (e.g., BL21-DE3) (FIGS. 8A-8D). For the imaging of H2O2, BL21-DE3 cells are transformed with plasmid DNA that contains a T7 promoter and RNABabySpinach or a custom triple baby spinach construct, which allows for the expression of three baby spinach RNA aptamers per transcription cycle. These cells are inoculated with isopropyl β-D-1-thiogalactopyranoside (IPTG) to induce RNA transcription. […] The results can guide additional studies with more complex and biologically relevant cell lines, in particular, any primary or established mammalian cells (e.g., HEK293, HeLa, and HUVEC, inter alia). Detection of endogenous H2O2 generation can also be studied by using molecular stimulants known to trigger mitochondrial ROS production, such as Phorbol 12-myristate 13-acetate (PMA).

BL21-DE3 cells = assay: Fluorescence imaging of H2S in E. coli expressing aptamer; assay type: cell-based; settings: upon introduction of H2S (1 mM)
Text: FIGS. 9A-9D depict detection of H2S in E. coli utilizing AEC-MFHBI. FIG. 9A provides a schematic showing the detection of H2S in E. coli by fluorescence of MFHBI upon cleavage from AEC-MFHBI. FIGS. 9B-9D provide fluorescence images of E. coli expressing aptamer plasmid which have been administered MFHBI (FIG. 9B), AEC-MFHBI (FIG. 9C), and AEC-MFHBI in the presence of H2S (FIG. 9D). Dual channel: MFHBI+RNA (470/550 nm) and FM 4-64FX (510/640 nm). Scale bar: 10 μm.
Imaging of hydrogen sulfide (H2S) has been performed in an analogous manner to that which is described for the detection of H2O2. Specifically, BL21-DE3 cells are transformed with plasmid DNA that contains a T7 promoter and RNABabySpinach or a custom triple baby spinach construct, which allows for the expression of three baby spinach RNA aptamers per transcription cycle. These cells are inoculated with isopropyl β-D-1-thiogalactopyranoside (IPTG) to induce RNA transcription. Subsequent immobilization of the cells on glass dish coated with poly-L-lysine (PLL) and incubation with an imaging buffer (IB) containing the imaging agents and/or controls (i.e., MFHBI, FIG. 9B; or AEC-MFHBI, FIGS. 9C-9D), allowed real time fluorescence imaging of SH2 in cellulo.

RNABabySpinach = assay: Fluorescence of H2O2-treated aptamer solutions; assay type: biochemical; settings: for rise of fluorescence intensity of ligand+RNABabySpinach+H2O2: H2O2 100 μM
Description: FIGS. 7A-7C depict H2O2 treatment of the aptamer systems. HBI and PBE-HBI (50 μM), RNA (1 μM RNABabySpinach), HEPES (pH 8, 50 mM), KCl (100 mM), MgCl2 (10 mM), H2O2 (100 μM). FIG. 7A depict the time-dependent change in fluorescence intensity upon H2O2 addition. FIG. 7B depicts normalized RFUs at 0, 5, and 60 min. FIG. 7C depicts RNABabySpinach stability against H2O2. TBE-urea PAGE lanes: 1. Native RNA; 2. [HBI+RNA]; 3. [HBI+RNA+H2O2]; 4. [PBE-HBI+RNA]; 5. [PBE-HBI+RNA+H2O2]. For imaging, the gel was stained with SYBR gold.
Next, the change in fluorescence for H2O2-treated aptamer solutions that contain HBI (positive control) and PBE-HBI (FIGS. 7A and 7B) was monitored. The RFU of PBE-HBI+RNABabySpinach was lower than that of HBI+RNABabySpinach by 14-fold at 0 min (no H2O2 present), validating that masking the phenolic oxygen of HBI inhibits RNA binding. Upon addition of H2O2 (100 μM), RFU of PBE-HBI+RNABabySpinach reached up to 92% of RFU of the control in 60 min. […] Upon H2O2 addition, the solution pH increased from 8.0 to 8.4 while ˜10% growth in fluorescence intensity was measured for the HBI-containing samples. This change is attributed to the pH-dependent increase in the phenolate form of HBI (see FIG. 5), which is known to have a higher extinction coefficient than its phenol form. […] To investigate the backbone stability of RNABabySpinach under these oxidative conditions, PAGE analyses of RNABabySpinach solutions containing HBI (FIG. 7C, lanes 2 and 3) and PBE-HBI (FIG. 7C, lanes 4 and 5) were carried out.
Remarkably, the kinetics of H2O2 detection, which involves conversion of PBE-HBI to HBI, followed by HBI-aptamer binding, is fast. The incubation time to achieve 1/2 RFUmax through this process is 6.8 (±0.5) min. Reliable detection of H2O2 is feasible in ˜1 min as the fluorescence intensity doubles. These findings are encouraging and serve as a standard for comparing the detection kinetics for other probes. […] In certain embodiments, reliable detection of elevated ALP may require longer incubations with the respective ABA system (FIG. 3G), as ALP has a relatively small margin of variation. The rates of biomarker detection can be modulated by substituting the HBI carbon framework of the probes (FIGS. 3A-3G) with electron donating (—OMe, —NMe2) or withdrawing (—F, —CF3) groups.

[2] = free (unbound) ligand; cited from earlier work
[3] = not told; cited from earlier work

With `CCCCCCCCOC(=O)Oc1ccc(/C=C2\N=C(C)N(C)C2=O)cc1` [Oct-HBI] the “fluorescence intensity with RNABabySpinach” value (RNABabySpinach (51-nt)) was 21 RFU and the “decrease in fluorescence intensity compared to HBI-RNABabySpinach” value (RNABabySpinach (51-nt); HEPES pH 8) was about 40 times.

With `CC1=N/C(=C\c2ccc(OCc3ccc(B(O)O)cc3)c(F)c2)C(=O)N1C` [PBAB-MFHBI] the “fluorescence in E. coli expressing aptamer, control sample” value ([1]; exogenous H2O2 absent (FIG. 8C)) was “very small increase in fluorescence” and the “fluorescence in E. coli expressing aptamer” value [1] was “rapid increase in fluorescence within one hour”.

For `CC1=N/C(=C\c2ccc(OC(=O)OCCN=[N+]=[N-])c(F)c2)C(=O)N1C` [AEC-MFHBI], the “fluorescence in E. coli expressing aptamer” value (BL21-DE3 cells) was “rapid increase in fluorescence is observed within one hour”.

With `CC1=N/C(=C\c2ccc(OCc3ccc(B4OC(C)(C)C(C)(C)O4)cc3)cc2)C(=O)N1C` [PBE-HBI] the “fluorescence in E. coli expressing aptamer” value [1] was “rapid increase in fluorescence within one hour”, the “RFU lower than that of HBI+RNABabySpinach” value (RNABabySpinach; 0 min (no H2O2 present), 50 μM ligand, 1 μM RNA, HEPES pH 8) was 14 fold and the “RFU as % of RFU of the control (HBI+RNABabySpinach)” value (RNABabySpinach; H2O2 (100 μM), in 60 min) was “up to 92%”. The “time for reliable detection of H2O2 (fluorescence intensity doubles)” value (RNABabySpinach; H2O2 detection) was about 1 min, the “incubation time to achieve 1/2 RFUmax” value (RNABabySpinach; H2O2 detection: conversion to HBI followed by HBI-aptamer binding) was 6.8 (±0.5) min and the “rise of fluorescence intensity of ligand+RNABabySpinach+H2O2” value (RNABabySpinach; after 60 min) was about 8 fold. The “rise of fluorescence intensity of ligand+RNABabySpinach+H2O2” value (RNABabySpinach; at 5 min) was about 4 fold.

For “4-hydroxy-benzylidene imidazolinone [HBI, reference compound]”, the fluorescence quantum yield Φf [2] is listed as about 0.0001, the cell permeability [3] is listed as “cell permeable” and the “growth in fluorescence intensity upon H2O2 addition” value (RNABabySpinach; H2O2 addition, solution pH increased from 8.0 to 8.4) is listed as about 10%. For the same compound, the “fluorescence intensity with RNABabySpinach” value (RNABabySpinach (51-nt)) was 846 RFU.
